Values quoted from earlier work in US20220206017A1, “AEROBIC GLYCOLYSIS AND HYPERMETABOLIC STATES” (priority 2022, published 2022).
pKi: −log10 of the molar value. Each block holds one molecule with its values, some of them ahead of it.

How the values were obtained:
hexokinase II = target: T1, hexokinase II (Homo sapiens, UniProt P52789); settings: inhibition of hexokinase II; reported value
T1 sequence (P52789 1-917): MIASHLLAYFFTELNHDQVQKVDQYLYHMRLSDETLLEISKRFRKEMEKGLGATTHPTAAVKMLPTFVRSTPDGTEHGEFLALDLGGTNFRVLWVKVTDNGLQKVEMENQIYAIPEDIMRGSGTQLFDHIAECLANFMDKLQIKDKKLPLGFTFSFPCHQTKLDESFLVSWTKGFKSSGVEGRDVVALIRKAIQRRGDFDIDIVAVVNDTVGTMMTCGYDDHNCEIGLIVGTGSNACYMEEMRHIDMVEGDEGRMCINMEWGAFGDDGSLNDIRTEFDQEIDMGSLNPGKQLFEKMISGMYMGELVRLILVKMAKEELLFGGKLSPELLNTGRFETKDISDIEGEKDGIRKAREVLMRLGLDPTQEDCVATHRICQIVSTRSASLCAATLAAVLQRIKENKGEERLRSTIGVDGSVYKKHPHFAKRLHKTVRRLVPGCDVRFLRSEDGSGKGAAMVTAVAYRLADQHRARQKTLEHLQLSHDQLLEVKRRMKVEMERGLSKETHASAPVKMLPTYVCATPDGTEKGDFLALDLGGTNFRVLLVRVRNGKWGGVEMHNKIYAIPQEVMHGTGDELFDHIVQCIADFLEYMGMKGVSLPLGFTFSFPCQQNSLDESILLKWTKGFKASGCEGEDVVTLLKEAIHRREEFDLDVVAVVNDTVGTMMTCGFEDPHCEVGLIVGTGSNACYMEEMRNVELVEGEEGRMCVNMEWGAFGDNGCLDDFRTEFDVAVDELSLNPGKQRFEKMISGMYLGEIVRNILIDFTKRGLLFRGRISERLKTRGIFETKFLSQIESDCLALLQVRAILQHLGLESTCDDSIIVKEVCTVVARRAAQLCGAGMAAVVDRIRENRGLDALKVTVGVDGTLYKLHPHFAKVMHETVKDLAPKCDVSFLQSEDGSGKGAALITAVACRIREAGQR

Red blood cells (RBC) = settings: monotherapy at known clinical doses
[1] = 3BP and DCA intravenous; 2DG oral
melanoma = settings: in vivo; compared to L-Lactic Acid Dimer (LLAD) and phosphate buffered saline control; FIG. 3, ref [4]

pKi (hexokinase II): 2.54
Compound: O=CC[C@@H](O)[C@H](O)[C@H](O)CO [2DG, 2-Deoxy-D-Glucose]
RBC hemolysis (Red blood cells (RBC)): does not cause RBC hemolysis
side effects of administration / clinical use [1]: generally well tolerated

Compound: O=C(O)C(=O)CBr [3BP, 3-Bromopyruvate]
side effects of administration / clinical use [1]: pain and phlebitis

Compound: O=C(O)C(Cl)Cl [DCA, Dichloroacetate]
side effects of administration / clinical use [1]: neurotoxicity

Compound: C[C@@H](O)C(=O)O[C@H](C)C(=O)O [DLAD, D-Lactic Acid Dimer]
melanoma cytotoxicity as measured by Ki-67 nuclei (melanoma): impressive melanoma cytotoxicity
